Assay results reported in patent publication US11406642B2, “DNP and DNP prodrug treatment of neuromuscular, neurodegenerative, autoimmune, developmental, traumatic brain injury, concussion, dry eye disease, hearing loss and/or metabolic diseases” (priority 2016, dated 2022).
Entries after “also recorded” stand apart in the source; their conditions may differ.

Tests used:
spiny neurons = assay: Model of Huntington's disease; assay type: in vivo; settings: treatment for over 17-weeks
Description: In one embodiment, the invention provides compositions and methods for treating Huntington's disease. […] DNP should prevent muscle loss since it reduces mitochondrial osmotic swelling by reducing intra-mitochondrial calcium concentration and inducing BDNF, which is a myokine (muscle protectant) outside of the brain.

wildtype mice = assay: Lifespan of chronically treated wildtype mice; assay type: in vivo; settings: wildtype mice chronically treated with an extraordinarily low dose
Description: (§1) Overt reactive oxygen species (ROSs) can be produced due to noise and certain ototoxic drugs that can damage the hair cells of the ear, resulting in either temporary or permanent hearing loss. Exposure to blast waves and continuous noise not only damaged the inner ear, but caused cell death in the hippocampus, suppressed neurogenesis and impaired memory function. Aging as well can manifest in mitochondrial dysfunction leading to hearing loss. It is emerging that attempts to treat hearing loss by targeting downstream issues is not very effective. In one embodiment, the compositions and methods of the invention relate to targeting oxidative stress upstream at the mitochondria that may be causative for many disorders. There have been a variety of attempts to lower cellular stress, such as administering anti-oxidants, however these drugs have limited tissue penetration into the brain and lower ROSs after they have been formed. […] While not being bound to theory, it is postulated that DNP modulates the mitochondrial membrane potential having a significant impact at preventing ROS formation in isolated mitochondria and in the treated wildtype mice. DNP treatment 3-hours post-ischemia reduced cerebral infarct volume 40% by protecting the penumbra or “threaten tissue” and could provide similar benefits after a blast to protect inner hair cells from eminent cell death. […]

[1] = test system: mouse model of Alzheimer's disease; assay: Alzheimer's disease mouse model, Morris Water Maze; assay type: in vivo; settings: chronic treatment
Description: (§2) In one embodiment, the invention provides compositions and methods for treating neurodegenerative diseases such as Alzheimer's disease, Parkinson, and Huntington's disease. It is believed that the complete lack of historic success is due to most pharmaceutical industries focusing on a downstream event, such as plaques/tangles, whereas the issue is likely upstream at the mitochondria causing high cellular stress.

Caco-2 = assay: Caco-2; assay type: in vitro ADME
Description: as §1

28-day toxicity studies = assay type: in vivo; settings: low doses
Description: as §1

dopaminergic neurons = assay: Parkinson model using 6-OHDA; assay type: in vivo; settings: chronic treatment
Description: as §2

cerebral infarct = settings: treatment 3-hours post-ischemia; cited from earlier work
CYP = assay: Inhibition of CYP; assay type: in vitro ADME
Description: as §1

[2] = Stability in simulated intestinal fluid (SIF), pH 6.8; assay type: in vitro ADME; settings: pH 6.8, 37° C.
Experimental: GI: Stability in simulated intestinal fluid (USP, 37° C.)
(§3) HPLC analysis was carried out on an Agilent 1200 Infinity Series Quatpump, equipped with a photodiode array detector and a computer integrating apparatus. An Inertsil ODS-3 column, C18, 5 μm, 4.6×50 mm (GL Science Inc. Japan) protected with a guard column: Alltima C18, 5 μm, 4.6×7.5 mm (Grace Discovery Sciences, IL, USA) was used as the stationary phase. An isocratic method with a mobile phase consisting of water/acetonitrile (70:30) containing 0.05% formic acid in each was used. A flow rate of 0.9 mL/min was used and detection was carried out at a UV wavelength of 250 nm.
Formulation of II-38 in SIF buffer, pH 6.8: to formulate 1 mg/mL of II-38 in SIF, 2.6 mg of II-38 was dissolved in 0.13 mL of DMSO (i.e. 5%) and titrated slowly and gradually to a total volume of 2.47 mL of preheated SIF (Table 4) in a cell diffusion chamber preheated to 37° C. The solution was mixed for 30 sec every half an hour using magnetic stirrer. Samples of 20 μL (20 μg/mL of II-38) were collected at 0, 0.5, 1, 2, 4, 6 and 8 h (FIGS. 12A and 12B). Each sample was mixed with acetonitrile QS to 1 mL, vortex-mixed for 30 sec and centrifuged at 10,000 rpm at room temp. A volume of 10 μL of the supernatant was injected into the HPLC spectrometer (FIG. 11).

[3] = Stability of II-38 in hydrochloric acid buffer, pH 1.2; assay type: physicochemical; settings: pH 1.2, 37° C., 5% DMSO, within 8 h
Experimental: (§4) pH: Stability in aqueous buffers (37° C., pHs 1.2 and 7.4)
as §3
Hydrochloric acid, pH 1.2 buffer was prepared. II-38 (2.5 mg) was dissolved in 0.125 mL of DMSO (5%). Reactions were initiated by adding II-38 dissolved in DMSO slowly and gradually to a total volume of 2.375 mL of HCl buffer, pH 1.2 (Table 1) in a Franz cell diffusion chamber preheated to 37° C. The solution was mixed for 30 sec every half an hour using magnetic stirrer. Samples of 20 μL (20 μg/mL of II-38) were collected at 0, 1, 2, 4, 6 and 8 h. Each sample was mixed with acetonitrile QS to 1 mL, vortex-mixed for 30 sec and centrifuged at 10,000 rpm at room temp. A volume of 10 μL of the supernatant was injected into the HPLC spectrometer for detection of 2,4-DNP and II-38 in HCl buffer, pH 1.2.

[4] = Stability of II-38 in phosphate buffer, pH 7.4; assay type: physicochemical; settings: pH 7.4, 37° C., 5% DMSO, within 8 h
Experimental: as §4, §3
Formulation of II-38 in phosphate buffer (PB): to formulate 1 mg/mL of II-38 in PB, 2.6 mg of II-38 was formulated in 0.13 mL of DMSO (i.e. 5%) and added slowly and gradually to a total volume of 2.47 mL of preheated PB (Table 2) in a Franz cell diffusion chamber preheated to 37° C. The solution was mixed for 30 sec every half an hour using magnetic stirrer. Samples of 20 μL (20 ug/mL of II-38) were collected at 0, 0.5, 1, 2, 4, 6 and 8 h. Each sample was mixed with acetonitrile QS to 1 mL, vortex-mixed for 30 sec and centrifuged at 10,000 rpm at room temp. A volume of 10 μL of the supernatant was injected into the HPLC spectrometer.

SMILES	effect on spiny neurons (spiny neurons)	lifespan (wildtype mice)	short term memory in the Morris Water Maze [1]	inhibition, Caco-2 (Caco-2)	Safety Index (28-day toxicity studies)	toxicity (28-day toxicity studies)	protection of dopaminergic neurons (dopaminergic neurons)	reduction of cerebral infarct volume (cerebral infarct)	inhibition to CYP (CYP)	stability in SIF [2]	hydrolysis / stability in HCl buffer [3]	hydrolysis / stability in phosphate buffer [4]
O=[N+]([O-])c1ccc(O)c([N+](=O)[O-])c1 [2,4-DNP, 2,4-dinitrophenol]	protection on the spiny neurons	living longer than untreated mice	strikingly improved	no inhibition	≥ 10 ×	not toxic	positive protective effect	40%	no inhibition			
O=C(Oc1ccc([N+](=O)[O-])cc1[N+](=O)[O-])N1CCOCC1 [II-38, 2,4-Dinitrophenyl morpholine-4-carboxylate]										stable	no significant hydrolysis; also recorded: did not show significant hydrolysis; also recorded: no evidence of 2,4-DNP formation	no significant hydrolysis; also recorded: did not show significant hydrolysis; also recorded: no evidence of 2,4-DNP formation
